Measured values as given in patent US6518423B1, “Benzopiperidine derivatives” (Eisai Co., Ltd., priority 1996, dated 2003).

melting point | SMILES
231 to 233 °C | O=C(NCCc1cn(Cc2ccc3c(c2)Nc2nccnc2S3)cn1)c1ccccc1
256 to 258 °C | Brc1nccn1Cc1ccc2c(c1)Nc1nccnc1S2
216 to 219 °C | c1ccc(Cc2nccn2Cc2ccc3c(c2)Nc2nccnc2S3)nc1
194 to 196 °C | CCOC(=O)c1c(C)ncn1Cc1ccc2c(c1)Nc1nccnc1S2
> 298 °C | Cc1c(C(N)=O)ncn1Cc1ccc2c(c1)Nc1nccnc1S2
> 288 °C (dec.) | CC/C(=C\c1ncn(Cc2ccc3c(c2)Nc2nccnc2S3)c1C)C(=O)O
243 to 244 °C | O=C(O)/C=C/c1nccn1Cc1ccc2c(c1)Nc1nccnc1S2
261 to 263 °C | CC(=O)Nc1ccc(-c2cn(Cc3ccc4c(c3)Nc3nccnc3S4)cn2)cc1
165 to 167 °C | Cc1oncc1C(=O)NCCc1cn(Cc2ccc3c(c2)Nc2nccnc2S3)cn1
> 270 °C (dec.) | Cc1c(CO)ncn1Cc1ccc2c(c1)Nc1nccnc1S2
211 to 212 °C | c1cnn(Cc2ccc3c(c2)Nc2nccnc2S3)c1
249 to 251 °C | c1cnc2c(c1)ncn2Cc1ccc2c(c1)Nc1nccnc1S2
160 to 161 °C | c1csc(Cc2ccc3c(c2)Nc2nccnc2S3)n1
157 to 159 °C | FC(c1cccnc1)c1ccc2c(c1)Nc1nccnc1S2 (centres unmarked)
172 to 174 °C | CN(Cc1ccc2c(c1)Nc1nccnc1S2)c1ccccc1
191 to 193 °C | CN(CCCCCC(=O)O)Cc1ccc2c(c1)Nc1nccnc1S2
252 to 256 °C | Cl.O=C(O)Cc1ccc(NCc2ccc3c(c2)Nc2nccnc2S3)cc1

melting point | SMILES
281 to 282 °C | O=C(Nc1ccccc1)c1ccc2c(c1)Nc1nccnc1S2
145 to 148 °C | CN(C)CCCNC(=O)Cc1ccc2c(c1)Nc1nccnc1S2
169 to 171 °C | CCCCNC(=O)OCc1ccc2c(c1)Nc1nccnc1S2
137 to 142 °C | C(=N\c1ccccn1)/NCc1ccc2c(c1)Nc1nccnc1S2
197 to 198 °C | CN(C=NC#N)Cc1ccc2c(c1)Nc1nccnc1S2
160 to 164 °C | c1ccc2ncc(NCc3ccc4c(c3)Nc3nccnc3S4)cc2c1
104 to 106 °C | c1cncc(CNCc2ccc3c(c2)Nc2nccnc2S3)c1
156 to 160 °C | OCc1cc(NCc2ccc3c(c2)Nc2nccnc2S3)ccn1
168 to 172 °C | COc1ccc(NCc2ccc3c(c2)Nc2nccnc2S3)cn1
162 to 165 °C | c1ccc(Oc2ccc(NCc3ccc4c(c3)Nc3nccnc3S4)cn2)cc1
138 to 142 °C | OCCSc1ccc(NCc2ccc3c(c2)Nc2nccnc2S3)cn1
170 °C | O=C(O)COc1ccc(NCc2ccc3c(c2)Nc2nccnc2S3)cn1
114 to 116 °C | O=C(O)CSc1ccc(NCc2ccc3c(c2)Nc2nccnc2S3)cn1
265 to 268 °C | Brc1ccc(NCc2ccc3c(c2)Nc2nccnc2S3)nc1
210 to 212 °C | CCNC(=O)N(Cc1ccc2c(c1)Nc1nccnc1S2)c1cccnc1
205 to 260 °C | O=S(=O)(c1ccccc1)N(Cc1ccc2c(c1)Nc1nccnc1S2)c1cccnc1

Further lines, the compound ahead of its results:

SMILES | melting point
O=S(=O)(NCCc1cn(Cc2ccc3c(c2)Nc2nccnc2S3)cn1)c1ccccc1 | 127 to 130 °C
O=C(O)c1ccc(-c2cn(Cc3ccc4c(c3)Nc3nccnc3S4)cn2)cc1 | 264 to 266 °C
CCCCCCCCC/C(=C\c1ncn(Cc2ccc3c(c2)Nc2nccnc2S3)c1C)C(=O)O | 194 to 197 °C
CS(=O)(=O)Nc1ccc(-c2cn(Cc3ccc4c(c3)Nc3nccnc3S4)cn2)cc1 | 253 to 255 °C
C/C(=C\C1C2(C)CCCC1(C)CN(Cc1ccc3c(c1)Nc1nccnc1S3)C2)C(=O)O (centres unmarked) | 249 to 251 °C
O=C(O)C(F)C1C2CCCC1CN(Cc1ccc3c(c1)Nc1nccnc1S3)C2 (centres unmarked) | 185 to 187 °C
OC(c1ccc2c(c1)Nc1nccnc1S2)c1nccs1 (centres unmarked) | 110 to 114 °C
OC(c1ccc2c(c1)Nc1nccnc1S2)c1cc(Br)ccc1F (centres unmarked) | 202 to 203 °C
O=C(O)CC1CC2CCC(C1)N2Cc1ccc2c(c1)Nc1nccnc1S2 (centres unmarked) | 155 to 158 °C
OC(C#Cc1ccccc1)c1ccc2c(c1)Nc1nccnc1S2 (centres unmarked) | 192 to 194 °C
CCCCC#CC(O)c1ccc2c(c1)Nc1nccnc1S2 (centres unmarked) | 116 to 118 °C
NS(=O)(=O)c1ccc(CNCc2ccc3c(c2)Nc2nccnc2S3)cc1 | 210 to 212 °C
Cc1ncnc2c1ncn2Cc1ccc2c(c1)Nc1nccnc1S2 | 276 to 278 °C
O=c1[nH]cnc2c1ncn2Cc1ccc2c(c1)Nc1nccnc1S2 | > 275 °C
C[C@@H]1CN(c2ncnc3c2ncn3Cc2ccc3c(c2)Nc2nccnc2S3)C[C@H](C)O1 | 227 to 229 °C
c1ccc(C2CCN(c3ncnc4c3ncn4Cc3ccc4c(c3)Nc3nccnc3S4)CC2)cc1 | 239 to 241 °C
N#CN=C(N)c1ncnc2c1ncn2Cc1ccc2c(c1)Nc1nccnc1S2 | > 290 °C
NC(Cc1ccc2c(c1)Nc1nccnc1S2)=NO | 252 to 254 °C
CCOC(=O)C(C)CCC1CCN(C(=N)Cc2ccc3c(c2)Nc2nccnc2S3)CC1.Cl (centres unmarked) | 219 to 220 °C
CN(C)S(=O)(=O)NC1CCN(C(=N)Cc2ccc3c(c2)Nc2nccnc2S3)CC1.Cl | 215 to 218 °C
CS(=O)(=O)/N=C/N1CCN(C(=N)Cc2ccc3c(c2)Nc2nccnc2S3)CC1.Cl | 215 to 218 °C
CN(C)C(Cc1ccc2c(c1)Nc1nccnc1S2)=NC#N | 247 to 249 °C (dec.)
N#CN=C(Cc1ccc2c(c1)Nc1nccnc1S2)NCCCn1ccnc1 | 205 to 208 °C

SMILES | melting point
CC(=O)NC1CCN(Cc2ccc3c(c2)Nc2nccnc2S3)CC1 | 212 to 214 °C
COC(=O)CNS(=O)(=O)NC1CCN(Cc2ccc3c(c2)Nc2nccnc2S3)CC1 | 194 to 196 °C
CS(=O)(=O)/N=C/NC1CCN(Cc2ccc3c(c2)Nc2nccnc2S3)CC1 | 119 to 122 °C
CS(=O)(=O)NC1CCN(Cc2ccc3c(c2)Nc2nccnc2O3)CC1 | 241 to 243 °C
CNS(=O)(=O)NC1CCN(Cc2ccc3c(c2)Nc2ncccc2S3)CC1 | 216 to 218 °C
c1cnc2c(n1)Nc1cc(CN3CCc4ccoc4C3)ccc1S2 | 168 to 172 °C
C1=NCCCN1Cc1ccc2c(c1)Nc1nccnc1S2.Cl | 238 °C (dec.)
O=C1CCN(Cc2ccc3c(c2)Nc2nccnc2S3)CC1 | 186 to 188 °C
c1ccc2c(c1)CCCN2Cc1ccc2c(c1)Nc1nccnc1S2 | 208 to 210 °C
N=C(N)N1CCN(Cc2ccc3c(c2)Nc2nccnc2S3)CC1 | 265 to 271 °C (dec.)
O=C(O)CCCN1CCC(NCc2ccc3c(c2)Nc2nccnc2S3)CC1 | 121 to 124 °C
CC(C(=O)O)C1CCN(Cc2ccc3c(c2)Nc2nccnc2S3)CC1 (centres unmarked) | 240 to 243 °C
CC(CCC1CCN(Cc2ccc3c(c2)Nc2ncccc2S3)CC1)C(=O)O (centres unmarked) | 113 to 115 °C
CC(CCC1CCN(Cc2ccc3c(c2)Nc2nccnc2O3)CC1)C(=O)O (centres unmarked) | 238 to 240 °C
CC(C)(CC(=O)O)C1CCN(Cc2ccc3c(c2)Nc2nccnc2S3)CC1 | 272 to 275 °C
O=C(O)C1CCN(S(=O)(=O)NC2CCN(Cc3ccc4c(c3)Nc3nccnc3S4)CC2)CC1 | 54 to 55 °C
O=C(O)CNS(=O)(=O)NC1CCN(Cc2ccc3c(c2)Nc2nccnc2S3)CC1 | 195 to 196 °C
CCOC1(CC(=O)O)CC2(CCN(Cc3ccc4c(c3)Nc3nccnc3S4)CC2)C1 | 226 to 227 °C
CC(C(=O)O)=C1CC2(CCN(Cc3ccc4c(c3)Nc3nccnc3S4)CC2)C1 | 251 to 252 °C
O=C(O)C1CC2(CCN(Cc3ccc4c(c3)Nc3nccnc3S4)CC2)O1 (centres unmarked) | 178 to 180 °C
O=C(O)COCC1CCN(Cc2ccc3c(c2)Nc2nccnc2S3)CC1 | 146 to 148 °C
CC(CCC1CCN(Cc2ccc3c(c2)Sc2nccnc2N3)CC1)C(=O)O (centres unmarked) | 221 to 222 °C
O=C(O)C(=O)NC1CCN(Cc2ccc3c(c2)Nc2nccnc2S3)CC1 | 222 to 226 °C

SMILES | melting point
O=C(O)C1CCC2(CC1)CCN(Cc1ccc3c(c1)Nc1nccnc1S3)C2 (centres unmarked) | 146 °C (dec.)
C/C(=C\CC1CCN(Cc2ccc3c(c2)Nc2nccnc2S3)CC1)C(=O)O | 91 to 93 °C
O=C(O)C(O)C1CCN(Cc2ccc3c(c2)Nc2nccnc2S3)CC1 (centres unmarked) | 98 to 99 °C
O=C(O)C1=CCCN(Cc2ccc3c(c2)Nc2nccnc2S3)C1 | 178 to 180 °C
O=C(O)C1(c2ccc(O)cc2)CCN(Cc2ccc3c(c2)Nc2nccnc2S3)CC1 | 260 to 262 °C
O=C(O)CNC(=O)NC1CCN(Cc2ccc3c(c2)Nc2nccnc2S3)CC1 | 207 to 210 °C
O=C(O)CC1CCN(Cc2ccc3c(c2)Nc2nccnc2S3)CC1 | 142 to 146 °C
CC(C)(O)C(=O)CC(SCC(=O)O)C1CCN(Cc2ccc3c(c2)Nc2nccnc2S3)CC1 (centres unmarked) | 130 to 132 °C
c1ccc2c(c1)Nc1nccnc1N2 | 215 to 217 °C
C=CCN1c2ccccc2Nc2nccnc21 | 173 to 175 °C
CC(C)(C)OC(=O)CN1c2ccccc2Nc2nccnc21 | 199 to 201 °C
OCC(O)CN1c2ccccc2Nc2nccnc21 (centres unmarked) | 191 to 194 °C
COCOc1ccc2c(c1)Nc1nccnc1N2C | 197 to 198 °C
CCOC(=O)c1ccc2c(c1)Nc1nccnc1N2C | 239 to 242 °C
O=C(O)CN1c2ccccc2Nc2nccnc21 | 210 to 212 °C
CCCN1c2ccccc2Nc2nccnc21 | 190 to 192 °C
CN1c2ccc(CN)cc2Nc2nccnc21 | 117 to 122 °C
CS(=O)(=O)NCCN1c2ccccc2Nc2nccnc21 | 218 to 222 °C
CCOC(=O)CC(=O)c1ccc2c(c1)Nc1nccnc1N2C | 88 to 89 °C
c1ccc(CNc2ccc(NCc3ccc4c(c3)Nc3nccnc3S4)cn2)cc1 | 208 to 211 °C
c1ccc(Cc2ccc(NCc3ccc4c(c3)Nc3nccnc3S4)cn2)cc1 | 162 to 164 °C
O=C(O)COCCC1C2CCCC1CN(Cc1ccc3c(c1)Nc1nccnc1S3)C2 (centres unmarked) | 108 to 113 °C
